Patent publication US7087648B1, “Methods for modulating macrophage proliferation using polyamine analogs” (The Regents of the University of California, priority 1997, dated 2006)

Columns and labels:
[1] = test system: human brain tumor cell lines; conditions: cited from earlier work
[2] = test system: brain cell aggregates; test: In vitro cell killing of brain cell aggregates by macrophage supernatants treated or not with DEHOP; type: cell-based, human; conditions: FIG. 2
Protocol: To collect a maximum number of monocytes (both heavy and light), we used a one-step Percoll protocol. 1.5 mL whole heparinised blood was mixed with an equal volume of isotonic phosphate-buffered solution and layered over 5 mL Percoll at 1.087. The cells were centrifuged, washed, and resuspended in RPMI 1640 supplemented with 10% fetal calf serum at […]. To separate non-adherent lymphocytes from adherent monocytes, culture dishes were washed with RPMI after overnight incubation. The adherent cells were re-fed with RPMI and cultured for 7 days to obtain supernatants. Supernatants were clarified by centrifugation at 90,000 g over 25% sucrose overnight. The supernatant was filtered through a 0.22 μm syringe filter and stored at −70° C.
Human fetal brain tissue from between 16 and 18 weeks' gestation was obtained from elective abortions for preparation of brain cell aggregates. These aggregates contain all the cells of the central nervous system including neurons, astrocytes, oligodendrocytes with accompanying myelin, and microglial cells. After 10 days in culture, and before experimentation, aggregates were tested for viability by trypan-blue exclusion. […]
Lactate dehydrogenase is released on cell lysis. […] The brain aggregate supernatant was reacted with yellow tetrazolium salt and absorbance was read at 490 nm. […]

SMILES: CCNCCCCNCCCCNCCCCNCC [DEHOP, 1,14-bis(ethylamino)-5,10-diazatetradecane]
- growth, survival, and cell cycle progression [1]: directly affects growth, survival, and cell cycle progression
- cell killing by macrophage supernatants ([2]; non-dementia disease control (AIDS lymphoma), with or without DEHOP treatment): did not show significant cell killing
- cell killing by macrophage supernatants ([2]; peripheral blood of an AIDS dementia patient, preparations treated with DEHOP): virtually disappeared
